Assay [1] has as its system HCT-116. As to the kind of experiment: Induction of apoptosis in human HCT116 cells assessed as early apoptotic cells at 4 uM incubated for 24 hrs in presence of pan-caspase inhibitor z-VAD-FMK by annexin-V-FITC/PI staining based FACS analysis (reference value: 8.08%). Format: functional.
Assay [2] has as its system HCT-116. As to the kind of experiment: Induction of apoptosis in human HCT116 cells assessed as late apoptotic cells at 8 uM incubated for 24 hrs by annexin-V-FITC/PI staining based FACS analysis (reference value: 1.55 to 1.56%). Format: functional. On the technique in general: In flow cytometry, cells or beads pass a laser one at a time.
The test system of assay [3] is HCT-116. As to the kind of experiment: Induction of apoptosis in human HCT116 cells assessed as early apoptotic cells at 8 uM incubated for 24 hrs by annexin-V-FITC/PI staining based FACS analysis (reference value: 1.77 to 3.38%). Format: functional.
The subject of assay [4] is HCT-116. The assay is described as follows: Induction of apoptosis in human HCT116 cells assessed as viable cells at 8 uM incubated for 24 hrs by annexin-V-FITC/PI staining based FACS analysis (reference value: 94.35 to 94.43%). Format: functional. As to conditions: HCT-116, 24 h, read-out: Activity.
In assay [5] the test system is HCT-116. The assay is described as follows: Induction of apoptosis in human HCT116 cells assessed as early apoptotic cells at 8 uM incubated for 24 hrs in presence of pan-caspase inhibitor z-VAD-FMK by annexin-V-FITC/PI staining based FACS analysis (reference value: 8.08%). Format: functional.
In assay [6] the test system is HCT-116. As to the kind of experiment: Antiproliferative activity against human HCT116 cells incubated for 48 hrs by MTT assay. The note with it: HCT-116, 48 h. Format: functional, cell-based. In general terms: Formazan colour is commonly taken as a measure of viable cells.
In assay [7] the test system is HeLa. As to the kind of experiment: Antiproliferative activity against human HeLa cells incubated for 48 hrs by MTT assay. Format: functional, cell-based.
Assay [8] relates to BGC-823. The assay is described as follows: Antiproliferative activity against human BGC823 cells incubated for 48 hrs by MTT assay. Format: functional, cell-based. The note with it: BGC-823, 48 h.
The subject of assay [9] is RKO. As to the kind of experiment: Growth inhibition of human RKO cells incubated for 24 hrs by CCK-8 assay. Format: functional, cell-based.
Assay [10] has as its system HCT-116. As to the kind of experiment: Induction of morphological changes in human HCT116 cells assessed as cell shrinkage at 4 to 10 uM incubated for 24 hrs by phase-contrast microscopic method. Format: functional, cell-based.
In assay [11] the test system is HCT-116. The assay is described as follows: Induction of apoptosis in human HCT116 cells assessed as viable cells at 4 uM incubated for 24 hrs by annexin-V-FITC/PI staining based FACS analysis (reference value: 94.35 to 94.43%). Format: functional. As to conditions: HCT-116, 24 h, read-out: Activity.
In assay [12] the test system is HCT-116. As to the kind of experiment: Induction of apoptosis in human HCT116 cells assessed as necrotic cells at 8 uM incubated for 24 hrs in presence of pan-caspase inhibitor z-VAD-FMK by annexin-V-FITC/PI staining based FACS analysis (reference value: 0.6%). Format: functional.
Assay [13] concerns HCT-116. The assay is described as follows: Induction of apoptosis in human HCT116 cells assessed as early apoptotic cells incubated for 24 hrs by annexin-V-FITC/PI staining based FACS analysis. Format: functional, cell-based.
Assay [14] relates to HCT-116. As to the kind of experiment: Induction of apoptosis in human HCT116 cells assessed as increase in cleaved PARP protein expression level at 4 to 8 uM incubated for 24 hrs by Western blot analysis. Format: functional, cell-based. (In western blotting, separated proteins are transferred to a membrane and probed.)
In assay [15] the test system is HCT-116. As to the kind of experiment: Induction of apoptosis in human HCT116 cells deficient in ATG7 assessed as early apoptotic cells at 8 uM incubated for 24 hrs by annexin-V-FITC/PI staining based FACS analysis (reference value: 2.32%). Format: functional.
Assay [16] relates to HCT-116. The assay is described as follows: Induction of apoptosis in human HCT116 cells deficient in ATG7 assessed as late apoptotic cells at 8 uM incubated for 24 hrs by annexin-V-FITC/PI staining based FACS analysis (Rvb =6.56%). Format: functional.

Active and inactive are the calls of the source. No cut-off for these calls is given here.

Broadly, the IC50 is the concentration needed to halve the response being measured.

Consider `COc1cccc(Nc2ccnc3cc(OCCCc4ccccc4)ccc23)c1`, for which the Activity is 15.45% in assay [1]; 15.38 - 17.66% in assay [2]; 17.9 - 18.35% in assay [3]; 19.42% in [5]; 1.71% in [12]; “Dose-dependent effect” in assay [13]. For the same compound, the Activity in assay [15] worked out at 5.26%; in assay [16], 11.04%. For the same compound, the viability at 8 µM in [4] fell in the range of 60.5 to 62.2%. The IC50 in assay [6] is 2560 nM; in assay [7], 2710 nM; in assay [8], 9080 nM. Also, the “growth inhibition (GI)” value in assay [9] was “Dose-dependent effect”. Further, the result in assay [10] and in assay [14] was Active. Moreover, the viability at 4 µM in assay [11] was determined as 75.4%.

The record behind these values is ChEMBL document CHEMBL4364251, “Design, synthesis and biological evaluation of new quinoline derivatives as potential antitumor agents” (Eur J Med Chem, 2019).
